From US7169813B2, “4-oxo-fenretinide, administered alone and in combination with fenretinide, as preventive and therapeutic agent for cancer” (Fondazione IRCCS “Istituto Nazionale Dei Tumori”, priority 2004, dated 2007)
pIC50: −log10 of the molar value. Where two headings read alike, the source gives them in different places.

How the values were obtained:
A2780 [1] = assay: Growth inhibition (sulforhodamine B assay), single agents and combination; format: cell-based; details: Homo sapiens, read-out: 50% Inhibitory Concentrations (IC50) at 72 h
Procedure: The following human ovarian carcinoma cell lines were tested: A2780 was obtained from Dr. R. F. Ozols (National Cancer Institute, Bethesda, Md., USA); IGROV-1 was obtained from Dr. J. Benard (Villejuif, France); OVCA432 was obtained from Dr. R. C. Knapp (Boston, Mass., USA); OAW42 and SKOV-3 were purchased from ATCC (Rockville, Md., USA). A2780/HPR, a 4-HPR— resistant ovarian carcinoma cell line, was obtained in our laboratory by continuous exposure of A2780 cells to increasing concentrations of 4-EPR as previously described (Appierto et al., Br. J. Cancer, 2001, 84:1528–1534; Prinetti et al., J. Biol. Chem., 2003, 278:5574–5583). Briefly, cells surviving 60 transplants in 4-HPR —containing medium (3 transplants at 1 μM, 11 transplants at 2 μM, 8 transplants at 3 μM, and 38 transplants at 5 μM) were cloned by limiting dilution. […]
(§1) For the growth inhibition assays, cells were seeded at a density of 3500 cells per well in 96 cluster tissue culture plates, and treated 24 hr after seeding with different concentrations of 4-oxo-4-HPR or 4-HPR. […] The survival of treated cells was calculated for the various drug concentrations as percentage of the survival of control cells. […]
Studies were performed to assess whether 4-oxo-4-HPR potentiates the tumor growth inhibitory effects of 4-HPR. […] The fractional survival (f) after 3 days of treatment was calculated for each experimental condition. […]

A2780 [2] = assay: as above; format: cell-based, human; details: Homo sapiens, A2780, 72 h, read-out: 50% Inhibitory Concentrations (IC50) at 72 h
Procedure: (§2) The following human ovarian carcinoma cell lines were tested: A2780 was obtained from Dr. R. F. Ozols (National Cancer Institute, Bethesda, Md., USA); IGROV-1 was obtained from Dr. J. Benard (Villejuif, France); OVCA432 was obtained from Dr. R. C. Knapp (Boston, Mass., USA); OAW42 and SKOV-3 were purchased from ATCC (Rockville, Md., USA). A2780/HPR, a 4-HPR— resistant ovarian carcinoma cell line, was obtained in our laboratory by continuous exposure of A2780 cells to increasing concentrations of 4-EPR as previously described (Appierto et al., Br. J. Cancer, 2001, 84:1528–1534; Prinetti et al., J. Biol. Chem., 2003, 278:5574–5583). Briefly, cells surviving 60 transplants in 4-HPR —containing medium (3 transplants at 1 μM, 11 transplants at 2 μM, 8 transplants at 3 μM, and 38 transplants at 5 μM) were cloned by limiting dilution. […] Therefore, A2780/HPR cells were continuously maintained in 5 μM 4-HPR and seeded without 4-HPR in all the experiments performed to test their sensitivity to 4-oxo-4-HPR.
The following human breast tumor cell lines, obtained from Dr. R. Sutherland (Garvan Institute, Sydney, Australia) were tested: T-47D, BT-20 and MCF-7. The following human neuroblastoma cell lines, purchased from ATCC, were tested: SK-N-BE, SK-N-SH, SK-N-MC, and GI-LI-N. All cell lines were grown in monolayer, in medium containing 10% fetal bovine serum (Invitrogen) in 5% CO2 at 37° C. The medium for A2780, A2780/HPR, IGROV-1, OVCA432, SKOV-3, T-47D, BT-20, MCF-7, GI-LI-N and SK-N-BE cells was RPMI 1640 (Cambrex, Verviers, Belgium) and the medium for OAW42, SK-N-MC and SK-N-SH cells was EMEM (ATCC).
For the growth inhibition assays, cells were seeded at a density of 3500 cells per well in 96 cluster tissue culture plates, and treated 24 hr after seeding with different concentrations of 4-oxo-4-HPR or 4-HPR. 4-oxo-4-HPR was dissolved in absolute ethanol and 4-HPR (obtained from Dr. J. A. Crowell —NCI Bethesda, Md., USA) was dissolved in Me2SO. […] Control cultures received the same amount of ethanol or Me2SO as the treated cultures. 72 hr after treatment cell number was estimated by using the sulforhodamine B assay according to Monks et al., (J. Natl. Cancer, 1991, 11: 757–766). The survival of treated cells was calculated for the various drug concentrations as percentage of the survival of control cells. The antiproliferative activity of 4-oxo-4-HPR and 4-HPR in each cell line, was tested in three separate experiments and the average values ±SD are reported in FIGS. 2, 3, and 4.
The antiproliferative effect of the combination of the two drugs, administered at one single dose, was also tested in other ovarian carcinoma cell lines and in breast tumor cell lines. The type of interaction between 4-HPR and 4-oxo-4-HPR was assessed by the method of Drevinko et al., as described in Cancer Biochem. Biophys., 1976, 1:187–195. For this evaluation the drugs were assumed to provide independent effects. The combination index (CI) was calculated as follows: survival fraction (SF) of the combination of 4-HPR+4-oxo-4-HPR divided by (SF 4-HPR×SF 4-oxo-4-HPR). The results for CI are defined as follows: CI=1 indicates an additive effect, CI<1 indicates a supra-additive effect and CI>1 indicates a sub-additive effect.

A2780 [3] = assay: Apoptosis induction (Cell Death Detection ELISA, DNA fragmentation); format: cell-based, human; details: 5 μM, 24 hr
Procedure: Although the mechanism of action of 4-HPR is not well understood, its tumor growth inhibitory effects have been attributed to apoptosis induction (Supino et al., Int. J. Cancer, 1996, 65:491–497). The apoptosis inducing effects of 4-oxo-4-HPR were compared with those of 4-HPR in the human ovarian carcinoma cell line A2780 and in its counterpart A2780/HPR, with induced resistance to 4-HPR. Apoptosis was evaluated by a Cell Death Detection ELISA Plus Assay Kit (Roche Diagnostic GmbH, Germany) according to the manufacturer's instructions. This assay quantitates the amount of cytoplasmic histone-associated DNA fragments which increases during apoptosis. Cells were seeded in 96-well cell culture plates and treated the day after with 5 μM 4-oxo-4-HPR or 4-HPR for 24 hr.

ovarian tumor cell lines = assay: Growth inhibition, ovarian tumor cell lines (FIG. 2); format: cell-based, human; details: all tested ovarian tumor cell lines; 72 hr
Procedure: as §2, with “4-oxo-4-HPR. […]” for “4-oxo-4-HPR.”
as §1

A2780/HPR = A2780/HPR clone versus A2780; cited from earlier work

| pIC50 (A2780 [1]; A2780, 72 h, calculated from graphs) | Structure (SMILES) | pIC50 (A2780 [1]; A2780, 72 h) | pIC50 (A2780 [2]) | induction of apoptosis (DNA fragmentation, fold versus control cells) (A2780 [3]) | reducing tumor cell survival (FIG. 2), compared with 4-HPR, in words (ovarian tumor cell lines) | resistance of A2780/HPR to 4-HPR (A2780/HPR) [fold] |
| --- | --- | --- | --- | --- | --- | --- |
| – | CC1=C(/C=C/C(C)=C/C=C/C(C)=C/C(=O)Nc2ccc(O)cc2)C(C)(C)CCC1=O [4-oxo-4-HPR, 4-oxo-N-(4-hydroxyphenyl)retinamide] | 6.22 | 6.30 | higher than that of 4-HPR | more effective than 4-HPR | – |
| 5.82 | CC1=C(/C=C/C(C)=C/C=C/C(C)=C/C(=O)Nc2ccc(O)cc2)C(C)(C)CCC1 [4-HPR, N-(4-hydroxyphenyl)retinamide, reference compound] | – | – | – | – | 10 |
